Measurements as given in patent publication US8574547B2, “Photoacoustic probes and methods of imaging” (The Board of Trustees of the Leland Stanford Junior …, priority 2007, dated 2013).

Biological target: T1, αvβ3 integrin (Homo sapiens, UniProt P05106+P06756)
T1 construct: endogenous in cells
Assay: Targeting ability: imaging inhibition of Alexa488 conjugated αvβ3 integrin antibody binding to cells
Format: cell-based
Conditions: cells incubated 1 hour with substance, then ½ hour with Alexa488 conjugated αvβ3 integrin antibody
Method: FIGS. 7(1)-7(4) illustrate digital images of cells that were incubated for 1 hour with PBS (FIG. 7(1)), QSY-21 (FIG. 7(2)), […] (FIG. 7(3)), and […] (FIG. 7(4)). Then the cells were incubated for ½ hour with Alexa488 conjugated αvβ3 integrin antibody.
Targeting ability of the conjugate was tested by imaging inhibition of the avb3 intergrin antibody. Cells were incubated for 1 hour with PBS (FIG. 7(1)), QSY-21 (FIG. 7(2)), RGD-QSY21 (FIG. 7(3)), and RGD (FIG. 7(4)). Then the cells were incubated for ½ hour with Alexa488 conjugated αvβ3 integrin antibody.

T1 sequence (P06756 31-889 limits assumed): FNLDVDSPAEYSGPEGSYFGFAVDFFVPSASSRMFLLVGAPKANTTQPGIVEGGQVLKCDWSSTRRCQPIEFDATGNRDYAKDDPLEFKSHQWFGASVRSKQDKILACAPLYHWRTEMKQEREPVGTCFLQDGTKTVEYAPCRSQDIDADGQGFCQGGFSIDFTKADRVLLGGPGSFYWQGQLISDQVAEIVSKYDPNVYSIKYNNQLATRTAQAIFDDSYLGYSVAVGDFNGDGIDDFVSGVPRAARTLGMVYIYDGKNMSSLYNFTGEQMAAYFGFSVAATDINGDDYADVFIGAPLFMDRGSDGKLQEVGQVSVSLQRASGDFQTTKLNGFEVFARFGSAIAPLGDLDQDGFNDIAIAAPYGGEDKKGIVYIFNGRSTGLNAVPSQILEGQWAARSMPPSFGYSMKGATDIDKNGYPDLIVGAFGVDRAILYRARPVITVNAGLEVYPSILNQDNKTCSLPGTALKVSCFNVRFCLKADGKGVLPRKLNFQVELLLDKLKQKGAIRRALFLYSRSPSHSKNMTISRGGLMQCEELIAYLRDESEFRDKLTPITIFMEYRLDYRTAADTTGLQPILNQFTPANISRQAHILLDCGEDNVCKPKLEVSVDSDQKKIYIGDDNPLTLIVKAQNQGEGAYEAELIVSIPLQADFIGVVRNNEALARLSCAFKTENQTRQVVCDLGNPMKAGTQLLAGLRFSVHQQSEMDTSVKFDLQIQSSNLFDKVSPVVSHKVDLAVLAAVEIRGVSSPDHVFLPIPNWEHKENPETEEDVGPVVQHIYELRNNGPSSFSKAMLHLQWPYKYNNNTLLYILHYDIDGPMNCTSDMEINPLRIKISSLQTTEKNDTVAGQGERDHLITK
T1 sequence (P06756 891-1048 partner limits assumed): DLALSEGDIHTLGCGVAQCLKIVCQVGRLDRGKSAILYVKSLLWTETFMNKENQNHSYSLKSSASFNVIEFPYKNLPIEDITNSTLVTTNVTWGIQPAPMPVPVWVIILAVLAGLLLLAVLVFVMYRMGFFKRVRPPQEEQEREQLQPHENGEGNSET
T1 sequence (P05106 27-788): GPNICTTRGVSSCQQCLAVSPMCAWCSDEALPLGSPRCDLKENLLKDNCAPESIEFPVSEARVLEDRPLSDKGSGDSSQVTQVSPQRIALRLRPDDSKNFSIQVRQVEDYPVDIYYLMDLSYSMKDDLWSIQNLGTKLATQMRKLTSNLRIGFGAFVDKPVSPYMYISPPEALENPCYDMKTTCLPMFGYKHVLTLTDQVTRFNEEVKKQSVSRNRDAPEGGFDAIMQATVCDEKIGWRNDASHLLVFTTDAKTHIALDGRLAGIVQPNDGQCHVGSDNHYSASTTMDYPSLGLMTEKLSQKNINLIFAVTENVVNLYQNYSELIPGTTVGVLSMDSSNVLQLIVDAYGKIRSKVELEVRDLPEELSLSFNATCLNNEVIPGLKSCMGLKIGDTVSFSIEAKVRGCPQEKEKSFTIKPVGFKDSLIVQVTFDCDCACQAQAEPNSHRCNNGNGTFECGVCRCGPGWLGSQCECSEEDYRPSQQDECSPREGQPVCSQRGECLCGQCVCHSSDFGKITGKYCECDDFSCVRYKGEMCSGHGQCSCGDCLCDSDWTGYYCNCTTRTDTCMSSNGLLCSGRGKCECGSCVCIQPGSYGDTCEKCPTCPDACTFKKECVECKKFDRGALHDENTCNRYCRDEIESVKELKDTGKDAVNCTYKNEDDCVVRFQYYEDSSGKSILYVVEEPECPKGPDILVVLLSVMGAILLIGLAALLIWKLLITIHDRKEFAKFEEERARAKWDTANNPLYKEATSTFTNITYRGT

## Arg-Gly-Asp [RGD]
  inhibition of αvβ3 integrin antibody binding: inhibition of antibody binding
